In PMC7534330, “UHPLC-MS/MS method for pharmacokinetic and bioavailability determination of five bioactive components in raw and various processed products of Polygala tenuifolia in rat plasma” (Pharmaceutical Biology, 2020):
Read-outs that look alike come from different tables or passages of the source.

Assays:
[1] = Pharmacokinetics of five components in rat plasma after oral administration of RPT, LPT and HPT extracts (UHPLC-MS/MS); settings: male, SD, in vivo, 1.9 g/kg, rat plasma, mean ± SD; for AUC(0-t): n = 6, read-out: AUC0-t; for AUC(0-inf): n = 6, read-out: AUC0-∞; for Cmax: n = 6, read-out: Cmax; for MRT last: n = 6, read-out: MRT0-t; for Tmax: n = 6, read-out: Tmax; for half-life: n = 6, read-out: t1/2 (converted)
Procedure: A Thermo Hypersil Gold C18 column (3.0 × 100 mm, i.d.; 3 μm) was used for chromatographic separation. An aqueous 10 mM ammonium acetate solution (A) and acetonitrile (B) were selected as the mobile phase components. The optimal gradient program involved the following steps: 5% B (0–1 min), changing to 85% B (1–3.5 min), 85% B (3.5–4.0 min), changing to 5% B (4.0–4.1 min) and 5% B (4.1–5.0 min). The flow rate was set to 0.4 mL/min, the autosampler was maintained at 4 °C and the injection volume was 5 μL.
UHPLC-MS/MS was conducted by an Applied Biosystems (AB) Sciex Exion LC system (Foster City, CA) connected to a 6500 + triple quad tandem mass spectrometer with an electrospray ionization source. All detection and quantifications were carried out in positive multiple reaction monitoring (MRM) mode. The optimized parameters were programmed as follows: ion source temperature, 500 °C; curtain gas pressure, 30 kPa; ion source gas 1 pressure, 55 kPa; ion source gas 2 pressure, 55 kPa; and ion spray voltage, […]. The chemical structures and ion mass spectra of targeted compounds are shown in Figure 1. The precursor ion and product ion were m/z 517.1 → 174.9 for A5, m/z 547.0 → 204.9 for A6, m/z 753.2 → 205.2 for DSS, m/z 681.3 → 443.3 for TFSA, m/z 236.8 → 103.2 for TMCA and m/z 136.9 → 92.9 for IS. All data were acquired by using AB Sciex Analyst software (version 1.6.3).
After thawing the frozen blood samples at room temperature, a 100 μL aliquot of plasma was spiked with 50 μL of the IS working solution in 2 mL EP tubes, and 750 μL of methanol was added into each of the tubes. Then, these tubes were mixed on a multi-tube Vortexer for 0.5 min before centrifugation at 11,800×g for 10 min. Finally, 200 μL of the obtained supernatant was transferred to a fresh autosampler vial, and then 5 μL of the sample was injected for analysis.
Male SD rats were randomly divided into four groups (n = 6 in each group), including the RPT group, LPT group, HPT group and control group. All oral administration samples were mixed with 0.5% CMC-Na (w/v) and then given to rats at a dose equivalent to 1.9 g/kg of RPT extract. The control group was orally treatment with equal volume of 0.5% CMC-Na solution. After a single administration, all blood samples were collected from the orbital vein into heparinized centrifuge tubes before administration (0 h) and at 0.083, 0.17, 0.25, 0.5, 0.75, 1, 1.5, 2, 3, 5, 8 and 12 h after administration and then centrifuged at 4 °C and 11,800×g for 10 min. The separated supernatant samples were preserved at −80 °C until they were measured.
The elementary pharmacokinetic parameters of plasma samples were analyzed by DAS 2.0 pharmacokinetic software. One-way analysis of variance (ANOVA) was used for statistical comparison for pharmacokinetic and interaction studies. A p-value < 0.05 indicated a significant difference. The main parameters considered were as follows: AUC0–∞ (the area under the blood concentration-time curve from zero to infinity initial plasma concentration), MRT (the mean residence time), Cmax (peak plasma concentration) and Tmax (time to reach Cmax for oral dose), t1/2 (elimination half-life) (He et al. [2015]). The absolute bioavailability (F) was evaluated as follows: F(%)=(AUCoral×Dosei.v.)/(AUCi.v.×Doseoral)×100%

[2] = Stability of the five analytes in rat plasma; format: in vitro ADME; settings: rat plasma, n = 6; for Long-term stability, Mean: 4 weeks at −80 °C; for Short-term stability, Mean: 5 h at room temperature (25 °C); for Auto-sampler stability, Mean: 24 h in the autosampler at 4 °C; for Freeze-thaw stability, Mean: three freeze-thaw cycles from −20 °C to room temperature
Procedure: Stock standards of A5, A6, DSS, TFSA, TMCA and IS were prepared in methanol at a concentration of 1 mg/mL. A series of working standard solutions of the targeted compounds ranging from 10 to 20,000 ng/mL and the IS solution at 600 ng/mL were prepared by diluting the stock solutions with methanol and maintained at −20 °C. Calibration standards were freshly prepared by spiking the series of standard solutions (30 μL) including the IS into blank rat plasma (270 μL) to achieve concentrations of 1, 10, 50, 100, 500, 1000, 1600 and 2000 ng/mL. Quality control (QC) samples were prepared independently at low (2 ng/mL), medium (600 ng/mL) and high (1600 ng/mL) concentrations following the same method for the five compounds.
Stability studies included short-term stability (5 h at room temperature, i.e. 25 °C), freeze-thaw stability (three consecutive freeze-thaw cycles from −20 °C to room temperature), autosampler stability (24 h storage in the autosampler at 4 °C) and long-term stability (4 weeks storage at −80 °C). The stability data of all analytes are presented in Supplementary Table S4.

[3] = oral HPT extract equivalent to 1.9 g/kg of RPT extract
[4] = oral LPT extract equivalent to 1.9 g/kg of RPT extract

Question: What does the source list for COc1cc(C=CC(=O)O)cc(OC)c1OC [TMCA, 3,4,5-trimethoxycinnamic acid]?
Answer: AUC(0-t) [1, 3]: 124 ± 41.3 ng·h/mL; AUC(0-inf) [1, 3]: 184 ± 137 ng·h/mL; Cmax [1, 3]: 63.2 ± 14.2 ng/mL; MRT last [1, 3]: 4.19 ± 0.91 h; Tmax [1, 3]: 4.2 ± 1.2 min; half-life [1, 3]: 3.73 ± 2.34 h; AUC(0-t) [1, 4]: 135 ± 33.4 ng·h/mL; AUC(0-inf) [1, 4]: 173 ± 40.4 ng·h/mL; Cmax [1, 4]: 80.7 ± 11.1 ng/mL; MRT last [1, 4]: 3.56 ± 0.25 h; Tmax [1, 4]: 6 ± 2.4 min; half-life [1, 4]: 6.82 ± 1.82 h; AUC(0-t) ([1]; oral RPT extract 1.9 g/kg): 91.7 ± 29.1 ng·h/mL; AUC(0-inf) ([1]; oral RPT extract 1.9 g/kg): 132 ± 33.4 ng·h/mL; Cmax ([1]; oral RPT extract 1.9 g/kg): 38.8 ± 13.8 ng/mL; MRT last ([1]; oral RPT extract 1.9 g/kg): 4.37 ± 0.53 h; Tmax ([1]; oral RPT extract 1.9 g/kg): 7.8 ± 3 min; half-life ([1]; oral RPT extract 1.9 g/kg): 6.93 ± 2.96 h; Long-term stability, Mean ([2]; 2 ng/mL): 98.3%; Short-term stability, Mean ([2]; 2 ng/mL): 96.2%; Auto-sampler stability, Mean ([2]; 2 ng/mL): 96.3%; Freeze-thaw stability, Mean ([2]; 2 ng/mL): 95.3%; Long-term stability, Mean ([2]; 600 ng/mL): 95.5%; Short-term stability, Mean ([2]; 600 ng/mL): 98.3%; Auto-sampler stability, Mean ([2]; 600 ng/mL): 99.8%; Freeze-thaw stability, Mean ([2]; 600 ng/mL): 97.3%; Long-term stability, Mean ([2]; 1600 ng/mL): 95.8%; Short-term stability, Mean ([2]; 1600 ng/mL): 102.5%; Auto-sampler stability, Mean ([2]; 1600 ng/mL): 99.5%; Freeze-thaw stability, Mean ([2]; 1600 ng/mL): 98.8%
